Measurements from patent US20090312414A1, “Treatment Of Lower Urinary Tract Dysfunction With CB2-Receptor-Selective Agonists” (priority 2008, published 2009).

Assays:
[1] = Actual solubility in aqueous buffers; type: physicochemical; settings: aqueous buffer
Procedure: The actual solubility of certain compounds of the invention was assessed in aqueous buffers and final concentration of compounds was determined using HPLC and spectrophotometer methodologies.

CB2 receptor = CB2 receptor (Homo sapiens, UniProt P34972); test: CB2 binding assay (displacement of radiolabeled agonist)
CB2 receptor, sequence (P34972 whole entry): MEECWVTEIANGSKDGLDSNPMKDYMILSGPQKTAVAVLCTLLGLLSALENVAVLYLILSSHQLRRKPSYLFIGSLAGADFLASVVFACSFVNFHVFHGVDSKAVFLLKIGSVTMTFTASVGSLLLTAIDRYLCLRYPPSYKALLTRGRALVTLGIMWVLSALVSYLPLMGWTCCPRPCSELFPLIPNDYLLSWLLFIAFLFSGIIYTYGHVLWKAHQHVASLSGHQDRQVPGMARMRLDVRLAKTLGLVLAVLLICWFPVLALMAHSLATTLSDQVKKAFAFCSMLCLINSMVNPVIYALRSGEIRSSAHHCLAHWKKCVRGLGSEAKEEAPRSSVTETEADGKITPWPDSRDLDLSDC

[2] = test system: conscious rats treated with cyclophosphamide; test: Cystometry in cyclophosphamide-induced model of IC/PBS; type: in vivo, rat; settings: 10 mg/kg IP; for Bladder capacity (BC): CYP-treated rats
From the text: This study involved the determination of the acute effect of the compound of Formula I on bladder function in conscious rats in the cyclophosphamide-induced model of interstitial cystitis/painful bladder syndrome (“IC/PBS”) using cystometry. The clinical use of cyclophosphamide (“CYP”), a chemotherapy drug that is given as a treatment for many types of cancer, can cause inflammation of the bladder lining, inducing acute hemorrhagic cystitis or chronic cystitis, and result in side effects in the bladder that can be seen in patients with IC/PBS. (Levine L A, Richie J P. Urological complications of cyclophosphamide. J Urol. 1989; 141:1063; Stillwell T J, Benson R C. Cyclophosphamide-induced cystitis. A review of 100 patients. Cancer. 1988; 61:451). The cystitis is not caused by CYP itself, but to acrolein, a toxic CYP metabolite produced by microsomal metabolism that is eliminated by the bladder (Levine L A, Richie J P. Urological complications of cyclophosphamide. J Urol. 1989; 141:1063). In rats, IP administration of CYP induces bladder inflammation and disrupts the urothelial lining, increasing afferent nerve sensitivity and leading to bladder overactivity. Bladder weight is increased due to the inflammation, and bladder capacity is decreased (Corrow K A, Vizzard M A. Phosphorylation of extracellular signal-regulated kinases in urinary bladder in rats with cyclophosphamide-induced cystitis. Am J Physiol. 2007; 293:R125; Lecci A, Birder L A, Meini S, Catalioto R-M, Tramontana M, Giuliani S, Criscuoli M, Maggi C A. Pharmacological evaluation of the role of cyclooxygenase isoenzymes on the micturition reflex following experimental cystitis in rats. Br J Pharmacol. 2000; 130:331).
Male Sprague Dawley rats, weighing 250 g, were maintained under standard laboratory conditions with a 12:12 light/dark cycle and free access to food pellets and water. For surgical procedures, the rats were anesthetized with IP administration of Equinthensin solution (3 ml/kg).
The bladder was exposed via a mid-line incision of the lower abdomen, and the bladder was freed from adhering tissues and emptied. A saline-filled polyethylene catheter (0.58 mm ID and 0.96 mm OD) was implanted in the bladder via an incision at the bladder dome and sutured in place with silk thread. For IV compound administration, a similar PE catheter filled with saline containing sodium heparin (40 IU/ml) was inserted into a jugular vein. The cannulas were exteriorized through a subcutaneous tunnel in the retroscapular area and are connected with a plastic adaptor in order to avoid removal by the animal. […]
Bladder capacity (“BC”) and micturition pressure (“MP”) were the urodynamic parameters evaluated from the cystometrogram. […]

[3] = test system: isolated detrusor from rats with partial urethral obstruction; test: Nerve-induced contractions (electrical field stimulation) in bladder strips from PUO rats; type: ex vivo, rat; settings: for Nerve-induced contractions: % of 60 mM K+ responses, preparations from treated PUO rats
Procedure: The effect of chronic treatment with the compound of Formula I was studied in contractility studies with isolated bladder strips from rats with PUO after 2 weeks of treatment with the compound of Formula I.
Bladder strips (2×2×6 mm) were dissected from PUO rat bladders. Silk ligatures were applied at both ends of the preparations which then were mounted on metal prongs in 5 ml aerated (95% O2 and 5% CO2) tissue baths (37° C.) containing Krebs solution. Mechanical activity was registered with Grass FT 03C force transducers connected to a Grass Polygraph model 7E. The preparations were stretched to a tension of approximately 10 mN and left to equilibrate for 45 minutes to attain a stable resting tonus. To establish the viability of the preparations and to determine a standard contractile level, preparations were exposed to a 60 mM K^+ Krebs solution. The effects of cumulative addition of carbachol, a non-selective muscarininc agonist (1 nM-0.1 mM), were studied in strip preparations from vehicle-treated and compound of Formula I-treated rats with PUO.
Transmural activation of nerves was performed with two platinum electrodes, placed in parallel to the sides of the strips in the organ baths. The nerves of the preparations were stimulated by means of a Grass S 48 stimulator, delivering single square-wave pulses at supramaximum voltage with duration of 0.5 ms. The polarity was changed after each pulse by means of a polarity-changing unit. The train duration was 5 seconds and the train interval 120 seconds. Frequency-response relationships were investigated at supramaximum voltage in all preparations stimulated electrically. […] All contractile responses were expressed as a percentage of the contraction elicited by 60 mM K^+ Krebs solution. Simultaneous curve fit analysis was performed using GraphPad Prism v4.0 to determine statistical significance for increased efficacy of the compound of Formula I treatment upon muscle strips. Briefly, dose-response curves were tested comparing a variable slope model vs. a fixed slope (m=1) model.

CCCCCCC(C)(C)c1cc(O)c([C@H]2CC(=O)[C@H]3C[C@@H]2C3(C)C)c(OC(=O)/C=C/C(=O)O)c1 [Formula I]
solubility [1]: > 10000 µg/mL
CB2/CB1 affinity ratio (CB2 receptor): 34
IC50 (CB2 receptor; displaces 50% of a radiolabeled agonist): 19.4 nM
Reduction of BC compared to pre-CYP treatment levels ([2]; 26 hr time point): 29%
Reduction of BC compared to pre-CYP treatment levels ([2]; 28 hr time point): 21%
Bladder capacity (BC) ([2]; 2 hr post treatment (26 hr time point)): 0.57 ± 0.06 mL
Bladder capacity (BC) ([2]; 4 h after administration (28 hr time point)): 0.63 ± 0.09 mL
Nerve-induced contractions vs untreated PUO rats ([3]; 1 Hz, bladders from PUO rats treated for 2 weeks): significantly larger contractions
Nerve-induced contractions ([3]; 8 Hz, p<0.01): 83±14%
Nerve-induced contractions ([3]; 16 Hz, p<0.005): 120±16%
Nerve-induced contractions ([3]; 32 Hz, p<0.006): 146±16%
